Laboratory results published in ChEMBL document CHEMBL1201862, “PubChem BioAssay data set” (2004).
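Grown in 96-well plates, cells were treated for 48 hours with each compound at five concentrations. Insufficient inhibition: endpoint recorded as highest concentration tested. GI50 = concentration required for 50% inhibition of growth.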 The source made the active and inactive calls. Cut-off read from the data, not from the text of the source: active = GI50 up to about 1.1 µM and inactive = higher.

Legend:
Experiment in all cases: NCI tumour cell line growth inhibition, 48 h
HCT-116 = system: HCT-116
K562 = system: K562
TK-10 = system: TK-10
KM-20L2 = system: KM-20L2
UACC-257 = system: UACC-257
COLO 205 = system: COLO 205
OVCAR-8 = system: OVCAR-8
786-0 = system: 786-0
ACHN = system: ACHN
UACC-62 = system: UACC-62
M14 = system: M14
RPMI-8226 = system: RPMI-8226
A498 = system: A498
IGROV-1 = system: IGROV-1
PC-3 = system: PC-3
MDA-MB-435 = system: MDA-MB-435
NCI/ADR-RES = system: NCI/ADR-RES
BT-549 = system: BT-549
SR = system: SR
MDA-MB-231 = system: MDA-MB-231

Cn1c(=O)c(/N=N/c2c(=O)n(C)c(=O)n3c2[nH]c2ccccc23)c2[nH]c3ccccc3n2c1=O
GI50 (HCT-116): 6.95 µM (inactive) | GI50 (K562): > 100 µM (inactive) | GI50 (TK-10): 50.8 µM (inactive) | GI50 (KM-20L2): > 100 µM (inactive) | GI50 (UACC-257): 54.2 µM (inactive) | GI50 (COLO 205): > 100 µM (inactive) | GI50 (OVCAR-8): 57.9 µM (inactive) | GI50 (786-0): 41.9 µM (inactive) | GI50 (ACHN): 80.9 µM (inactive) | GI50 (UACC-62): > 100 µM (inactive) | GI50 (M14): > 100 µM (inactive) | GI50 (RPMI-8226): > 100 µM (inactive) | GI50 (A498): 90.4 µM (inactive) | GI50 (IGROV-1): 86.7 µM (inactive)

COc1cc2c(cc1OC)C(Cc1cc(Br)c(OC)c(OC)c1)=[N+](C)CC2
GI50 (HCT-116): > 100 µM (inactive) | GI50 (K562): 18.8 µM (inactive) | GI50 (TK-10): 59.6 µM (inactive) | GI50 (KM-20L2): 39.2 µM (inactive) | GI50 (UACC-257): 11.1 µM (inactive) | GI50 (COLO 205): 40.6 µM (inactive) | GI50 (OVCAR-8): 27 µM (inactive) | GI50 (786-0): > 100 µM (inactive) | GI50 (ACHN): 90.4 µM (inactive) | GI50 (UACC-62): > 100 µM (inactive) | GI50 (M14): 69.8 µM (inactive) | GI50 (RPMI-8226): 43.2 µM (inactive) | GI50 (IGROV-1): > 100 µM (inactive)

Cc1ccc(NC(=O)c2cc3cc(/N=N/c4ccccc4C(=O)O)ccc3oc2=O)cc1
GI50 (HCT-116): 28.4 µM (inactive) | GI50 (K562): 39.2 µM (inactive) | GI50 (TK-10): 58.9 µM (inactive) | GI50 (KM-20L2): 36 µM (inactive) | GI50 (UACC-257): 20.3 µM (inactive) | GI50 (COLO 205): 35.3 µM (inactive) | GI50 (OVCAR-8): 58.7 µM (inactive) | GI50 (786-0): 94.6 µM (inactive) | GI50 (ACHN): 53.2 µM (inactive) | GI50 (UACC-62): 24.6 µM (inactive) | GI50 (M14): 55.3 µM (inactive) | GI50 (RPMI-8226): 18.6 µM (inactive) | GI50 (IGROV-1): 41.2 µM (inactive)

Cc1ccc(S(=O)(=O)NC(=O)NCCc2ccccc2)cc1
GI50 (HCT-116): > 100 µM (inactive) | GI50 (K562): 83.4 µM (inactive) | GI50 (TK-10): > 100 µM (inactive) | GI50 (KM-20L2): > 100 µM (inactive) | GI50 (UACC-257): 25.9 µM (inactive) | GI50 (COLO 205): > 100 µM (inactive) | GI50 (OVCAR-8): > 100 µM (inactive) | GI50 (786-0): > 100 µM (inactive) | GI50 (ACHN): > 100 µM (inactive) | GI50 (UACC-62): > 100 µM (inactive) | GI50 (M14): > 100 µM (inactive) | GI50 (RPMI-8226): > 100 µM (inactive) | GI50 (A498): > 100 µM (inactive) | GI50 (IGROV-1): > 100 µM (inactive)

NCCCNCc1c2ccccc2c(CNCCCN)c2ccccc12
GI50 (HCT-116): 5.35 µM (inactive) | GI50 (K562): 13.6 µM (inactive) | GI50 (TK-10): 32.5 µM (inactive) | GI50 (KM-20L2): 17.9 µM (inactive) | GI50 (UACC-257): 21.2 µM (inactive) | GI50 (COLO 205): 7.66 µM (inactive) | GI50 (OVCAR-8): 14.6 µM (inactive) | GI50 (786-0): 5.9 µM (inactive) | GI50 (ACHN): 26.7 µM (inactive) | GI50 (UACC-62): 36.1 µM (inactive) | GI50 (M14): > 10 µM (inactive) | GI50 (A498): 23.1 µM (inactive) | GI50 (IGROV-1): 44.2 µM (inactive)

C/C(C=O)=N\Nc1cc(C)c2ccccc2n1
GI50 (HCT-116): 14.5 µM (inactive) | GI50 (K562): 13.4 µM (inactive) | GI50 (TK-10): 15.5 µM (inactive) | GI50 (PC-3): 13.7 µM (inactive) | GI50 (MDA-MB-435): 16 µM (inactive) | GI50 (UACC-257): 17.6 µM (inactive) | GI50 (COLO 205): 16.4 µM (inactive) | GI50 (OVCAR-8): 17.5 µM (inactive) | GI50 (786-0): 14.2 µM (inactive) | GI50 (NCI/ADR-RES): 15.7 µM (inactive) | GI50 (ACHN): 16.3 µM (inactive) | GI50 (UACC-62): 14.7 µM (inactive) | GI50 (M14): 15.7 µM (inactive) | GI50 (BT-549): 12.8 µM (inactive) | GI50 (SR): 1.7 µM (inactive) | GI50 (RPMI-8226): 11.9 µM (inactive) | GI50 (MDA-MB-231): 15.1 µM (inactive) | GI50 (A498): 15.2 µM (inactive) | GI50 (IGROV-1): 16.9 µM (inactive)

c1ccc(-c2c[nH]c(SC(c3ccccc3)c3ccccc3)n2)cc1
GI50 (HCT-116): 12.7 µM (inactive) | GI50 (K562): 12.7 µM (inactive) | GI50 (TK-10): 21.1 µM (inactive) | GI50 (PC-3): 22.1 µM (inactive) | GI50 (MDA-MB-435): 21.1 µM (inactive) | GI50 (UACC-257): 18 µM (inactive) | GI50 (COLO 205): 13 µM (inactive) | GI50 (OVCAR-8): 19.6 µM (inactive) | GI50 (786-0): 32.1 µM (inactive) | GI50 (NCI/ADR-RES): 11.1 µM (inactive) | GI50 (ACHN): 24.5 µM (inactive) | GI50 (UACC-62): 14.2 µM (inactive) | GI50 (M14): 30.8 µM (inactive) | GI50 (BT-549): 25.1 µM (inactive) | GI50 (SR): 13.3 µM (inactive) | GI50 (RPMI-8226): 10.8 µM (inactive) | GI50 (MDA-MB-231): 58.6 µM (inactive) | GI50 (A498): 24.7 µM (inactive) | GI50 (IGROV-1): 19.2 µM (inactive)

O=C(O)c1cccc(SSc2cccc(C(=O)O)c2)c1
GI50 (HCT-116): > 100 µM (inactive) | GI50 (K562): > 100 µM (inactive) | GI50 (TK-10): > 100 µM (inactive) | GI50 (PC-3): > 100 µM (inactive) | GI50 (MDA-MB-435): > 100 µM (inactive) | GI50 (UACC-257): > 100 µM (inactive) | GI50 (COLO 205): > 100 µM (inactive) | GI50 (OVCAR-8): > 100 µM (inactive) | GI50 (786-0): > 100 µM (inactive) | GI50 (NCI/ADR-RES): > 100 µM (inactive) | GI50 (ACHN): > 100 µM (inactive) | GI50 (UACC-62): > 100 µM (inactive) | GI50 (M14): > 100 µM (inactive) | GI50 (BT-549): > 100 µM (inactive) | GI50 (SR): > 100 µM (inactive) | GI50 (RPMI-8226): > 100 µM (inactive) | GI50 (MDA-MB-231): > 100 µM (inactive) | GI50 (A498): > 100 µM (inactive) | GI50 (IGROV-1): > 100 µM (inactive)

FC(F)(F)c1n[nH]c(SCc2ccc(Cl)cc2)n1
GI50 (HCT-116): > 100 µM (inactive) | GI50 (K562): > 100 µM (inactive) | GI50 (TK-10): > 100 µM (inactive) | GI50 (PC-3): > 100 µM (inactive) | GI50 (MDA-MB-435): > 100 µM (inactive) | GI50 (UACC-257): > 100 µM (inactive) | GI50 (COLO 205): > 100 µM (inactive) | GI50 (OVCAR-8): > 100 µM (inactive) | GI50 (786-0): > 100 µM (inactive) | GI50 (NCI/ADR-RES): > 100 µM (inactive) | GI50 (ACHN): > 100 µM (inactive) | GI50 (UACC-62): > 100 µM (inactive) | GI50 (M14): > 100 µM (inactive) | GI50 (BT-549): > 100 µM (inactive) | GI50 (SR): > 100 µM (inactive) | GI50 (RPMI-8226): > 100 µM (inactive) | GI50 (MDA-MB-231): > 100 µM (inactive) | GI50 (A498): > 100 µM (inactive) | GI50 (IGROV-1): > 100 µM (inactive)

CCC(=O)C(CCN1CCC2(CCCc3ccccc32)CC1)(c1ccccc1)c1ccccc1
GI50 (HCT-116): 1.42 µM (inactive) | GI50 (K562): 1.8 µM (inactive) | GI50 (TK-10): 3.77 µM (inactive) | GI50 (PC-3): 2.45 µM (inactive) | GI50 (MDA-MB-435): 3.49 µM (inactive) | GI50 (UACC-257): 2.05 µM (inactive) | GI50 (COLO 205): 1.34 µM (inactive) | GI50 (OVCAR-8): 3.66 µM (inactive) | GI50 (786-0): 2.12 µM (inactive) | GI50 (NCI/ADR-RES): 3.19 µM (inactive) | GI50 (ACHN): 2.85 µM (inactive) | GI50 (UACC-62): 3.72 µM (inactive) | GI50 (M14): 1.87 µM (inactive) | GI50 (BT-549): 0.685 µM (active) | GI50 (SR): 1.66 µM (inactive) | GI50 (RPMI-8226): 0.622 µM (active) | GI50 (MDA-MB-231): 2.51 µM (inactive) | GI50 (A498): 1.98 µM (inactive) | GI50 (IGROV-1): 2.77 µM (inactive)

C(/Cc1ccc2c(c1)OCO2)=N\N=C1NCCCN1
GI50 (HCT-116): 46.2 µM (inactive) | GI50 (K562): 35.1 µM (inactive) | GI50 (TK-10): > 100 µM (inactive) | GI50 (PC-3): 36.3 µM (inactive) | GI50 (MDA-MB-435): > 100 µM (inactive) | GI50 (UACC-257): > 100 µM (inactive) | GI50 (COLO 205): 57 µM (inactive) | GI50 (OVCAR-8): > 100 µM (inactive) | GI50 (786-0): 78.2 µM (inactive) | GI50 (NCI/ADR-RES): 84.1 µM (inactive) | GI50 (ACHN): 28 µM (inactive) | GI50 (UACC-62): > 100 µM (inactive) | GI50 (M14): 32.4 µM (inactive) | GI50 (BT-549): 64.7 µM (inactive) | GI50 (SR): 22.5 µM (inactive) | GI50 (RPMI-8226): 56.1 µM (inactive) | GI50 (MDA-MB-231): > 100 µM (inactive) | GI50 (A498): 19.5 µM (inactive) | GI50 (IGROV-1): 68.2 µM (inactive)

CC(C)(N)C(=O)N[C@@H]1C(=O)N2[C@@H]1SC(C)(C)[C@@H]2C(=O)O
GI50 (HCT-116): > 100 µM (inactive) | GI50 (K562): > 100 µM (inactive) | GI50 (TK-10): > 100 µM (inactive) | GI50 (PC-3): > 100 µM (inactive) | GI50 (MDA-MB-435): > 100 µM (inactive) | GI50 (UACC-257): > 100 µM (inactive) | GI50 (COLO 205): > 100 µM (inactive) | GI50 (OVCAR-8): > 100 µM (inactive) | GI50 (786-0): > 100 µM (inactive) | GI50 (NCI/ADR-RES): > 100 µM (inactive) | GI50 (ACHN): > 100 µM (inactive) | GI50 (UACC-62): > 100 µM (inactive) | GI50 (M14): > 100 µM (inactive) | GI50 (BT-549): > 100 µM (inactive) | GI50 (SR): > 100 µM (inactive) | GI50 (RPMI-8226): > 100 µM (inactive) | GI50 (MDA-MB-231): > 100 µM (inactive) | GI50 (A498): > 100 µM (inactive) | GI50 (IGROV-1): > 100 µM (inactive)
